# Laboratory results published in publication PMC8151276, “An Integrated Approach toward NanoBRET Tracers for Analysis of GPCR Ligand Engagement” (Molecules, 2021).
# How the values were obtained:
# Format in all cases: binding
# GRM4 = molecular target: T1, GRM4 (Homo sapiens, UniProt Q14833); test: NanoBRET screen HiBiT-GRM4 in HEK293; details: GRM4
# T1 construct: purchased Promega (in-house HiBiT-GPCR construct library, NanoBRET)
# Procedure: (§1) Each tracer candidate was screened across the entire library of HiBiT-GPCR constructs using NanoBRET as the detection modality. As depicted in Figure 4A, the specificity of interactions was evaluated through decrease in BRET due to competitive displacement of a bound tracer by excess parental compound. Each tracer was analyzed for binding to each HiBiT-GPCR fusion in the absence and in the presence of competing parental compound. Briefly, HEK293 cells were transfected with HiBiT-GPCR constructs diluted into promoterless DNA to reduce expression and maximize translocation to the cell surface. Each tracer candidate was then screened at concentrations of 1 μM and 0.1 μM across cells expressing these fusions. Cells were treated for 1.5 h with tracer either alone or in the presence of 20 μM competing parental compound (i.e., control). BRET was measured upon addition of purified LgBiT and subsequent complementation with HiBiT genetically fused to a GPCR. The specificity of interactions was assessed through a decrease in BRET signal due to competitive displacement of the bound tracer. To further gauge the robustness of these interactions, the fold response over the control (i.e., BRETtracer/BRETcontrol) was calculated. We chose a 1.5-fold response, which translates to ≥7-fold signal over noise as the minimal threshold required to score an interaction as positive. […]. Below we highlight the screening results obtained for our exemplary fluorescent tracers based on Clozapine, Amitriptyline and AZD1283.
# (§2) HiBiT-GPCR DNA constructs were diluted in 10 mM Tris pH 8 to a final concentration of 0.01 μg/μL, arrayed in 96-well plates and stored at −20 °C. For transfection, HEK293 cells were suspended in Opti-MEM (without phenol red) supplemented with 2% fetal bovine serum (Seradigm) and 100 units/mL penicillin–streptomycin (Gibco) at a final concentration of 220,000 cells/mL and dispensed into white 96-well plates at 90 μL/well. Subsequent transfections and screens were carried using an Agilent Bravo Automated Liquid Handling Platform. First, the 96-well HiBiT DNA arrays were diluted 25-fold in Opti-MEM (without serum or phenol red) to a final concentration of 0.0004 μg/μL and 20 μL of the diluted DNAs were transferred into new 96-well plates. Next, promoterless carrier DNA (1 μg/μL) was diluted 25-fold (0.04 μg/μL) and then dispensed into the diluted arrays at 20 μL/well. Following brief mixing, Viafect transfection reagent (Promega) diluted 16-fold into Opti-MEM was dispensed into the plates at 40 μL/well. After mixing by pipetting, plates were incubated for 10 min on the pipetting station deck. The DNA-transfection reagent complexes were then added to plates containing cells. To facilitate the screen, 10 μL of DNA-transfection reagent complexes were added in duplicates to the top 4 and bottom 4 rows, resulting in two identical 48-well arrays per plate. Plates with transfected cells were incubated for 18–20 h at 37 °C/5% CO2. A screen of each tracer across the entire library using two different concentrations requires duplicate plates of transfected cells. Depending on the number of tracers being screened, transfections can be scaled up using the same ratios. The next day, for each tracer, four 20× screening solutions in tracer dilution buffer (Promega) were prepared: two duplicates at final concentration of 20 μM and two duplicates at a final concentration of 2 μM. A competing unmodified compound was added to one of each duplicate at a final concentration of 400 μM. The four resulting solutions were diluted 4-fold in Opti-MEM without serum or phenol red to generate 5× solutions (5 µM and 0.5 µM tracer +/− 100 μM competing compound). To screen the library, a BioTek MultiFlo FX liquid dispenser was used to dispense 22.5 µL of tracer solution to the top 4 rows and 22.5 µL tracer + competing compound solution to the 4 bottom rows. Plates were briefly mixed on an orbital shaker and incubated for 1.5 h at room temperature. […]
# NPFFR2 = molecular target: T2, NPFFR2 (Homo sapiens, UniProt Q9Y5X5); test: NanoBRET screen HiBiT-NPFFR2 in HEK293
# T2 construct: purchased Promega (in-house HiBiT-GPCR construct library, NanoBRET)
# Procedure: as §1, §2
# ADRB1 = molecular target: T3, ADRB1 (Homo sapiens, UniProt P08588); test: NanoBRET screen HiBiT-ADRB1 in HEK293
# T3 construct: purchased Promega (in-house HiBiT-GPCR construct library, NanoBRET)
# ADORA1 = molecular target: T4, ADORA1 (Homo sapiens, UniProt P30542); test: NanoBRET screen HiBiT-ADORA1 in HEK293
# T4 construct: purchased Promega (in-house HiBiT-GPCR construct library, NanoBRET)
# T4 sequence (P30542 1-326): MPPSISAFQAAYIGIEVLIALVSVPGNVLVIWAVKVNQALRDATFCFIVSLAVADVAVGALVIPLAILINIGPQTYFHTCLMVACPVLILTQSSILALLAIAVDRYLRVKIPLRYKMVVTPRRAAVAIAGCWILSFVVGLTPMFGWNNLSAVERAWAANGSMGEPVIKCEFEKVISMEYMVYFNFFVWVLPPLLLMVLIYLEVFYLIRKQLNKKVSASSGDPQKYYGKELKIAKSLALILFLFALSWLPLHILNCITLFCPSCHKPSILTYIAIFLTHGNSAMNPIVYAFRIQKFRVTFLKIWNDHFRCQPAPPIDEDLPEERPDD
# Procedure: as §1, §2
# [1] = tracer at 1μM, listed as amitriptyline-b-2-NB590
# T2 sequence (Q9Y5X5 whole entry): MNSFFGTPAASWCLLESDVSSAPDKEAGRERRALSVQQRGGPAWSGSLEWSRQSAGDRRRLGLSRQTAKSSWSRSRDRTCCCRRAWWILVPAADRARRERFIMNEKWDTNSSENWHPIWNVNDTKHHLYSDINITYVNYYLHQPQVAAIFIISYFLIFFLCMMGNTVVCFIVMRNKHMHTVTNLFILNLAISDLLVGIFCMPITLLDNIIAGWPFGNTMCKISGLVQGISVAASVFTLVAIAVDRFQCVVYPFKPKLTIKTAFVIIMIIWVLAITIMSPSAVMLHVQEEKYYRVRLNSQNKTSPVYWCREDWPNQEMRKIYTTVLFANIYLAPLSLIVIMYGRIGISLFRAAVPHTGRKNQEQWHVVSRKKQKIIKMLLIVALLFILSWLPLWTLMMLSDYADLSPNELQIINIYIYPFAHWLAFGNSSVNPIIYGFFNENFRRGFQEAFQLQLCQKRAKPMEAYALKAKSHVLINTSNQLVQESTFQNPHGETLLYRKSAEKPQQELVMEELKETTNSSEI
# T3 sequence (P08588 whole entry): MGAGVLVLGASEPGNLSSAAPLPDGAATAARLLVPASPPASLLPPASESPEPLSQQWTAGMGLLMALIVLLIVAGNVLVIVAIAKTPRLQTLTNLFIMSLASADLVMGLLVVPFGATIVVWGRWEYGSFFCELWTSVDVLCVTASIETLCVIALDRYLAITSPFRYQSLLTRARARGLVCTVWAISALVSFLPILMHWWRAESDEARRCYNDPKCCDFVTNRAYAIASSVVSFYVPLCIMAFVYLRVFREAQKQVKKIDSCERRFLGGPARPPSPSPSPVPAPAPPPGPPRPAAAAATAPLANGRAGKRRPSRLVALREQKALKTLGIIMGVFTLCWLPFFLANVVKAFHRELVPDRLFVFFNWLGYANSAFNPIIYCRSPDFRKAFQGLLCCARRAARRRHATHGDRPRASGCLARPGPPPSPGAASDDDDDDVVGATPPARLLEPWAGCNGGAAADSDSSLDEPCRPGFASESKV
# T1 sequence (Q14833 33-912): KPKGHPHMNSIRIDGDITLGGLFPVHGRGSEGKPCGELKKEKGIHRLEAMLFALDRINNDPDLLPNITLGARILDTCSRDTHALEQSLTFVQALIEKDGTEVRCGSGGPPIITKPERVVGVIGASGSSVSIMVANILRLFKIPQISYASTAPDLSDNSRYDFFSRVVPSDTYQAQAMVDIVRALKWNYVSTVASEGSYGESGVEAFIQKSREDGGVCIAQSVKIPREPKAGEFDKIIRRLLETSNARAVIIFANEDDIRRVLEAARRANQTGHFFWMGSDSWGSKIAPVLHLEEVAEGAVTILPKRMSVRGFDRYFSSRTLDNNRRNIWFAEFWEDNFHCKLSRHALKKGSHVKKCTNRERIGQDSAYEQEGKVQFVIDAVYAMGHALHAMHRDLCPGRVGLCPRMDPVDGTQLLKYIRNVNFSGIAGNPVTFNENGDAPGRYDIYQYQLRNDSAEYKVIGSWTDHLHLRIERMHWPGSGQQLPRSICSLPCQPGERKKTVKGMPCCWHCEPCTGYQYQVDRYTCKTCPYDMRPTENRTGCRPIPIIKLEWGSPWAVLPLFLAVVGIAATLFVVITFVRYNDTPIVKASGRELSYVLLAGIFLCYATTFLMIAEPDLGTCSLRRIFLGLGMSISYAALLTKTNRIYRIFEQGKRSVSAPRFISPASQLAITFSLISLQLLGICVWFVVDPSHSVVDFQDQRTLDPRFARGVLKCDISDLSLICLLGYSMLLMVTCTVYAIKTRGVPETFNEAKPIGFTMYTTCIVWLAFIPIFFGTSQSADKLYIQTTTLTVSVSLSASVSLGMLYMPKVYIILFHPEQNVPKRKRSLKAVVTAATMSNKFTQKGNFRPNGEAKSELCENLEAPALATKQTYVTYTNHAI
compound,measurement,setting,value
CN1CCN(C2=Nc3cc(Cl)ccc3Nc3ccc(CNC(=O)CCOCCOCCOCCOCCNC(=O)CCc4ccc5n4[B-](F)(F)[N+]4=C(c6ccc[nH]6)C=CC4=C5)cc32)CC1 [Clozapine-b-2-NB590],NanoBRET Fold Response,GRM4; 0.1μM tracer,1.05
same,NanoBRET Fold Response,GRM4; 1μM tracer,1.03
same,NanoBRET Fold Response,"NPFFR2; NPFFR2, 0.1μM tracer",1.02
same,NanoBRET Fold Response,"NPFFR2; NPFFR2, 1μM tracer",1.00
same,NanoBRET Fold Response,"ADRB1; ADRB1, 0.1μM tracer",0.99
same,NanoBRET Fold Response,"ADRB1; ADRB1, 1μM tracer",1.02
same,NanoBRET Fold Response,"ADORA1; ADORA1, 0.1μM tracer",0.99
same,NanoBRET Fold Response,"ADORA1; ADORA1, 1μM tracer",0.97
CN(C)CCC=C1c2ccccc2CCc2ccc(C(=O)NCCNC(=O)CCOCCOCCOCCOCCNC(=O)CCc3ccc4n3[B-](F)(F)[N+]3=C(c5ccc[nH]5)C=CC3=C4)cc21 [Amitriptyline-b-2-NB590],NanoBRET Fold Response,GRM4; tracer 0.1μM,0.96
same,NanoBRET Fold Response,GRM4; tracer 1μM,0.95
same,NanoBRET Fold Response,NPFFR2; tracer at 0.1μM,1.00
same,NanoBRET Fold Response,NPFFR2; tracer at 1μM,1.03
same,NanoBRET Fold Response,ADRB1; [1],0.96
same,NanoBRET Fold Response,ADORA1; [1],1.01
CCOC(=O)c1cc(C#N)c(N2CCC(C(=O)NS(=O)(=O)Cc3ccccc3/C=C/C(=O)NCCNC(=O)CCc3ccc4n3[B-](F)(F)[N+]3=C(c5ccc[nH]5)C=CC3=C4)CC2)nc1C [AZD1283-1-NB590],NanoBRET Fold Response,GRM4; 0.1μM,1.06
same,NanoBRET Fold Response,GRM4; 1μM,1.07
same,NanoBRET Fold Response,"NPFFR2; NPFFR2, 0.1μM",1.01
same,NanoBRET Fold Response,"NPFFR2; NPFFR2, 1μM",1.15
same,NanoBRET Fold Response,"ADRB1; ADRB1, 0.1μM",1.05
same,NanoBRET Fold Response,"ADRB1; ADRB1, 1μM",1.09
same,NanoBRET Fold Response,"ADORA1; ADORA1, 0.1μM",1.18
same,NanoBRET Fold Response,"ADORA1; ADORA1, 1μM",1.07
CC(C)N(CC[C@H](c1ccccc1)c1cc(CCNC(=O)CCOCCOCCOCCOCCNC(=O)CCc2ccc3n2[B-](F)(F)[N+]2=C(c4ccc[nH]4)C=CC2=C3)ccc1O)C(C)C [Tolterodine-2-NB590],NanoBRET Fold Response,GRM4; tracer 0.1μM,0.97
same,NanoBRET Fold Response,GRM4; tracer 1μM,1.14
same,NanoBRET Fold Response,"NPFFR2; NPFFR2, tracer 0.1μM",0.98
same,NanoBRET Fold Response,"NPFFR2; NPFFR2, tracer 1μM",1.06
same,NanoBRET Fold Response,"ADRB1; ADRB1, tracer 0.1μM",1.09
same,NanoBRET Fold Response,"ADRB1; ADRB1, tracer 1μM",0.99
same,NanoBRET Fold Response,"ADORA1; ADORA1, tracer 0.1μM",0.95
same,NanoBRET Fold Response,"ADORA1; ADORA1, tracer 1μM",0.99
CC(C)N(CC[C@H](c1ccccc1)c1cc(CCNC(=O)c2ccc(CNC(=O)CCc3ccc4n3[B-](F)(F)[N+]3=C(c5ccc[nH]5)C=CC3=C4)cc2)ccc1O)C(C)C [Tolterodine-BZ-NB590],NanoBRET Fold Response,GRM4; tracer 0.1μM,1.02
same,NanoBRET Fold Response,GRM4; tracer 1μM,0.99
same,NanoBRET Fold Response,"NPFFR2; NPFFR2, tracer 0.1μM",1.00
same,NanoBRET Fold Response,"NPFFR2; NPFFR2, tracer 1μM",1.02
same,NanoBRET Fold Response,"ADRB1; ADRB1, tracer 0.1μM",1.02
same,NanoBRET Fold Response,"ADRB1; ADRB1, tracer 1μM",1.10
same,NanoBRET Fold Response,"ADORA1; ADORA1, tracer 0.1μM",1.18
same,NanoBRET Fold Response,"ADORA1; ADORA1, tracer 1μM",1.02
O=C(CCOCCOCCOCCOCCNC(=O)CCc1ccc2n1[B-](F)(F)[N+]1=C(c3ccc[nH]3)C=CC1=C2)NCCCN1CCN(C2=Nc3ccccc3Oc3ccc(Cl)cc32)CC1 [Loxapine-a-2-NB590],NanoBRET Fold Response,GRM4; tracer 0.1μM,1.04
same,NanoBRET Fold Response,GRM4; tracer 1μM,0.99
same,NanoBRET Fold Response,"NPFFR2; NPFFR2, tracer 0.1μM",1.05
same,NanoBRET Fold Response,"NPFFR2; NPFFR2, tracer 1μM",1.03
same,NanoBRET Fold Response,"ADRB1; ADRB1, tracer 0.1μM",0.97
same,NanoBRET Fold Response,"ADRB1; ADRB1, tracer 1μM",0.97
same,NanoBRET Fold Response,"ADORA1; ADORA1, tracer 0.1μM",1.13
same,NanoBRET Fold Response,"ADORA1; ADORA1, tracer 1μM",1.04
CN1CCN(C2=Nc3cc(Cl)ccc3N(CC(=O)NCCOCCOCCOCCOCCNC(=O)CCc3ccc4n3[B-](F)(F)[N+]3=C(c5ccc[nH]5)C=CC3=C4)c3ccccc32)CC1 [Clozapine-c-2-NB590],NanoBRET Fold Response,GRM4; 0.1μM tracer,0.94
same,NanoBRET Fold Response,GRM4; 1μM tracer,1.14
same,NanoBRET Fold Response,"NPFFR2; NPFFR2, 0.1μM tracer",0.98
same,NanoBRET Fold Response,"NPFFR2; NPFFR2, 1μM tracer",0.99
same,NanoBRET Fold Response,"ADRB1; ADRB1, 0.1μM tracer",1.02
same,NanoBRET Fold Response,"ADRB1; ADRB1, 1μM tracer",0.94
same,NanoBRET Fold Response,"ADORA1; ADORA1, 0.1μM tracer",1.00
same,NanoBRET Fold Response,"ADORA1; ADORA1, 1μM tracer",0.87
